Source: article PMC6691761, “Potential multifunctional agents with anti-hepatoma and anti-inflammation properties by inhibiting NF-кB activation” (Journal of Enzyme Inhibition and Medicinal Chemistry, 2019)

Assays:
Assay type in all cases: cell-based
[1] = tested on: human breast cancer cells (MCF-7); experiment: Cytotoxicity, MTT assay, MCF-7; conditions: for IC50: MTT, 24 h; for MCF-7 SI (selectivity index): quotient of IC50 towards LO2 cells
Text: (§1) Compounds 83–102 were screened against human neoplastic cell lines, such as human breast cancer cells (MCF-7), human colon cancer cells (HCT116), human lung carcinoma cells (A549), human gastric adenocarcinoma cells (SGC7901), human liver hepatocellular carcinoma cell line (HepG2), human cervical carcinoma cells (HeLa), human acute mononuclear granulocyte leukaemia (THP-1), and human normal hepatic cell line (LO2) using modified MTT assay. All the cells were obtained from the American Type Culture Collection (ATCC, Manassas, VA). The cells were cultured in DMEM or 1640. Positive controls (Doxorubicin (DOX) and Curcumin) and BAPs were initially dissolved in dimethyl sulphoxide (DMSO). Experimental concentration of DMSO was always 0.1% (v/v). The concentrations of BAPs and positive controls were 50, 20, 10, 5, 2.5, 1, 0.5, 0.1, 0.05, and 0.01 μg/mL.
(§2) The cells (1 × 10^4 cells/well) were seeded in a 96-well plate and incubated for 24 h. Cells treated with serial concentrations of drugs were incubated for another 24 h. After the media removed, 20 μL of MTT (5 mg/mL) solution was added and incubated for 4 h at 37 °C. The MTT solution was removed and then 150 μL of DMSO was added. The optical density was measured with a multi-well plate reader (TECAN, Mӓnnedorf, Switzerland) at 570 nm. The results are expressed as a decrease in the cell viability (%) in comparison to untreated controls. The concentration of each compound was examined in triplicate, and the IC50 values are expressed in Table 1.

[2] = tested on: human colon cancer cells (HCT116); experiment: Cytotoxicity, MTT assay, HCT116; conditions: for IC50: MTT, 24 h; for HCT116 SI (selectivity index): quotient of IC50 towards LO2 cells
Text: as §1, §2

[3] = tested on: human lung carcinoma cells (A549); experiment: Cytotoxicity, MTT assay, A549; conditions: for IC50: MTT, 24 h; for A549 SI (selectivity index): quotient of IC50 towards LO2 cells
Text: as §1, §2

[4] = tested on: human gastric adenocarcinoma cells (SGC7901); experiment: Cytotoxicity, MTT assay, SGC7901; conditions: for IC50: MTT, 24 h; for SGC7901 SI (selectivity index): quotient of IC50 towards LO2 cells
Text: as §1, §2

[5] = tested on: human liver hepatocellular carcinoma cell line (HepG2); experiment: Cytotoxicity, MTT assay, HepG2; conditions: for IC50: MTT, 24 h; for HepG2 SI (selectivity index): quotient of IC50 towards LO2 cells
Text: as §1, §2

[6] = tested on: human cervical carcinoma cells (HeLa); experiment: Cytotoxicity, MTT assay, HeLa; conditions: for IC50: MTT, 24 h; for HeLa SI (selectivity index): quotient of IC50 towards LO2 cells
Text: as §1, §2

[7] = tested on: human acute mononuclear granulocyte leukaemia (THP-1); experiment: Cytotoxicity, MTT assay, THP-1; conditions: for IC50: MTT, 24 h; for THP-1 SI (selectivity index): quotient of IC50 towards LO2 cells
Text: as §1, §2

[8] = tested on: human normal hepatic cell line (LO2); experiment: Toxicity to normal cells, MTT assay, LO2; conditions: 24 h
Text: as §1, §2

SMILES	MCF-7 SI (selectivity index) [1]	HCT116 SI (selectivity index) [2]	A549 SI (selectivity index) [3]	SGC7901 SI (selectivity index) [4]	HeLa SI (selectivity index) [6]	IC50 [1]	IC50 [2]	IC50 [3]	IC50 [4]	IC50 [5]	HepG2 SI (selectivity index) [5]	IC50 [6]	IC50 [7]	THP-1 SI (selectivity index) [7]	IC50 [8]	also measured
CN1C/C(=C\c2cccc([N+](=O)[O-])c2)C(=O)/C(=C/c2ccccc2F)C1 [Compound 83, (3E,5E)-3–(2-fluorobenzylidene)-1-methyl-5–(3-nitrobenzylidene)piperidin-4-one]	1.8	2.1	5.7	3.5	5.2											IC50 ([1]; Homo sapiens, MCF7): 7.2 ± 0.3 µM; IC50 ([2]; Homo sapiens, HCT-116): 6.2 ± 0.6 µM; IC50 ([3]; Homo sapiens, A549, 24 h): 2.3 ± 0.2 µM; IC50 ([4]; Homo sapiens, SGC-7901): 3.7 ± 0.3 µM; IC50 ([5]; Homo sapiens, HepG2, 24 h): 1.2 ± 0.2 µM; IC50 ([6]; Homo sapiens, HeLa): 2.5 ± 0.3 µM; IC50 ([7]; Homo sapiens, THP-1, 24 h): 1.3 ± 0.1 µM; IC50 ([8]; Homo sapiens): 13.1 ± 0.8 µM
CN1CC(=Cc2cccc(N=Cc3cc(O)ccc3O)c2)C(=O)C(=Cc2ccccc2F)C1 [Compound 99]	2.6	2.1	3.5	3.3	1.0	5.9 ± 0.2 µM	7.42 ± 0.1 µM	4.4 ± 0.1 µM	4.7 ± 0.3 µM	8.2 ± 0.1 µM	1.9	15.3 ± 1.1 µM	7.8 ± 0.4 µM	2.0	15.6 ± 0.4 µM	
CN1CC(=Cc2cccc(N=Cc3ccc(Cl)c(Cl)c3)c2)C(=O)C(=Cc2ccccc2F)C1 [Compound 95]	2.0	1.7	3.5	3.3	2.6	5.4 ± 0.2 µM	6.3 ± 0.2 µM	3.1 ± 0.2 µM	3.3 ± 0.5 µM	2.5 ± 0.1 µM	4.4	4.3 ± 0.1 µM	3.8 ± 0.1 µM	2.9	11 ± 0.4 µM	
COc1cc(/C=C2\CN(C)C/C(=C\c3ccc(F)cc3Br)C2=O)cc(OC)c1OC [Compound 88]	2.3	2.3	2.6	4.1	2.8	6.3 ± 0.4 µM	6.5 ± 0.3 µM	5.6 ± 0.3 µM	3.6 ± 0.1 µM	5.3 ± 0.2 µM	2.8	5.3 ± 0.3 µM	7.6 ± 0.2 µM	1.9	14.8 ± 0.3 µM	
CN1C/C(=C\c2cccc([N+](=O)[O-])c2)C(=O)/C(=C/c2cc(F)ccc2F)C1 [Compound 86]	1.9	2.0	2.3	1.0	1.9	11.1 ± 0.7 µM	10.5 ± 0.9 µM	9.3 ± 0.4 µM	20.5 ± 0.5 µM	9.2 ± 0.4 µM	2.3	11.5 ± 0.8 µM	7 ± 0.2 µM	3.0	21.3 ± 0.4 µM	
COc1ccc(C=Nc2cccc(C=C3CN(C)CC(=Cc4ccccc4F)C3=O)c2)c(O)c1 [Compound 101]	3.0	2.8	4.0	1.3	1.6	4.7 ± 0.2 µM	4.9 ± 0.1 µM	3.5 ± 0.2 µM	10.8 ± 0.1 µM	4.8 ± 0.1 µM	2.9	8.9 ± 0.2 µM	3.5 ± 0.2 µM	4.0	13.9 ± 0.3 µM	
CN1CC(=Cc2cccc(N=Cc3ccc(Cl)cc3)c2)C(=O)C(=Cc2ccccc2F)C1 [Compound 94]	2.8	2.9	3.1	2.8	1.6	6.5 ± 0.1 µM	6.3 ± 0.1 µM	5.9 ± 0.3 µM	6.4 ± 0.1 µM	4.8 ± 0.1 µM	3.8	11.1 ± 0.3 µM	4 ± 0.1 µM	4.5	18 ± 0.3 µM	
CN1C/C(=C\c2cc(F)cc(F)c2)C(=O)/C(=C/c2cccc([N+](=O)[O-])c2)C1 [Compound 85]	1.1	1.5	2.1	0.8	1.4	18.5 ± 0.4 µM	13.2 ± 0.5 µM	9.7 ± 0.2 µM	24.5 ± 0.8 µM	14.3 ± 0.1 µM	1.4	14.2 ± 0.6 µM	5.4 ± 0.3 µM	3.8	20.3 ± 0.1 µM	
COc1ccc(/C=C2\CN(C)C/C(=C\c3cc(OC)c(OC)c(OC)c3)C2=O)cc1 [Compound 90]	1.1	1.4	2.8	2.4	1.1	15.5 ± 0.9 µM	12.1 ± 0.4 µM	5.8 ± 0.2 µM	7 ± 0.4 µM	8.2 ± 0.6 µM	2.0	15.5 ± 0.2 µM	5 ± 0.3 µM	3.3	16.5 ± 0.1 µM	
COc1ccc(/C=C2\CN(C)C/C(=C\c3ccc(Cl)c(Cl)c3)C2=O)cc1 [Compound 91]	1.1	0.8	1.5	2.2	0.8	12.5 ± 0.5 µM	18.1 ± 0.2 µM	9.2 ± 0.1 µM	6.4 ± 0.1 µM	4.5 ± 0.7 µM	3.2	17 ± 1.3 µM	7.2 ± 0.2 µM	2.0	14.2 ± 0.3 µM	
CN1C/C(=C\c2cccc([N+](=O)[O-])c2)C(=O)/C(=C/c2ccc(F)cc2F)C1 [Compound 84]	2.3	2.0	3.1	2.5	1.9	8.5 ± 0.2 µM	9.5 ± 0.1 µM	6.2 ± 0.3 µM	7.6 ± 0.8 µM	8.2 ± 0.3 µM	2.4	10.2 ± 0.2 µM	11.8 ± 0.2 µM	1.6	19.3 ± 0.3 µM	
